Measurements taken from patent publication US6809065B2, “Herbicide containing substituted pyrazole derivative as active ingredient” (SDS Biotech K.K., priority 2001, dated 2004).

Columns and labels:
Chenopodium album [1] = assay: Upland field foliage treatment (Test Example 1); type: in vivo; settings: foliage treatment 14th day after sowing, wettable powder, 1 kg active ingredient per hectare, evaluated 21st day after application
In short: (§1)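 Weeds and crops were sown in upland soil under about 1 cm cover, and a wettable powder diluted in water was sprayed on the foliage 14 days after sowing at 1 kg active ingredient per hectare. Scoring was done 21 days after application on an index scale, where higher weed scores mean stronger herbicidal effect and lower crop scores mean greater crop safety.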

Digitaria adscendens [2] = assay: Upland field foliage treatment (Test Example 1); type: in vivo; settings: foliage treatment 14th day after sowing, wettable powder, 1 kg active ingredient per hectare, evaluated 21st day after application
In short: as §1

Setaria viridis [3] = assay: Upland field foliage treatment (Test Example 1); type: in vivo; settings: foliage treatment 14th day after sowing, wettable powder, 1 kg active ingredient per hectare, evaluated 21st day after application
In short: as §1

Stellaria media [4] = assay: Upland field foliage treatment (Test Example 1); type: in vivo; settings: foliage treatment 14th day after sowing, wettable powder, 1 kg active ingredient per hectare, evaluated 21st day after application
In short: as §1

soybean (Glycine max) [5] = assay: Upland field foliage treatment (Test Example 1), crop; type: in vivo; settings: foliage treatment 14th day after sowing, 1 kg active ingredient per hectare, evaluated 21st day, lower index = higher safety
In short: as §1

[6] = system: wheat (Triticum aestivum); assay: as above; type: in vivo; settings: foliage treatment 14th day after sowing, 1 kg active ingredient per hectare, evaluated 21st day, lower index = higher safety
In short: as §1

Chenopodium album [7] = assay: Upland soil treatment (Test Example 2); type: in vivo; settings: soil surface treatment next day after sowing, wettable powder, 1 kg active ingredient per hectare, evaluated 21st day after application
In short: (§2)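 Index rating at day 21 after a single pre-emergence soil-surface application, 1 kg a.i./ha, made the day after sowing in upland soil; for crops a lower index indicates higher safety.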

Digitaria adscendens [8] = assay: Upland soil treatment (Test Example 2); type: in vivo; settings: soil surface treatment next day after sowing, wettable powder, 1 kg active ingredient per hectare, evaluated 21st day after application
In short: as §2

Setaria viridis [9] = assay: Upland soil treatment (Test Example 2); type: in vivo; settings: soil surface treatment next day after sowing, wettable powder, 1 kg active ingredient per hectare, evaluated 21st day after application
In short: as §2

Stellaria media [10] = assay: Upland soil treatment (Test Example 2); type: in vivo; settings: soil surface treatment next day after sowing, wettable powder, 1 kg active ingredient per hectare, evaluated 21st day after application
In short: as §2

soybean (Glycine max) [11] = assay: Upland soil treatment (Test Example 2), crop; type: in vivo; settings: soil surface treatment next day after sowing, 1 kg active ingredient per hectare, evaluated 21st day, lower index = higher safety
In short: as §2

[12] = system: wheat (Triticum aestivum); assay: Upland soil treatment (Test Example 2), crop; type: in vivo; settings: soil surface treatment next day after sowing, 1 kg active ingredient per hectare, evaluated 21st day, lower index = higher safety
In short: as §2

Echinochloa spp. = assay: Paddy field treatment (Test Example 3); type: in vivo, Echinochloa crusgalli; settings: paddy pot, submerged 4 cm, dropped on water surface 10th day after transplantation, 1 kg active ingredient per hectare, evaluated 21st day
In short: (§3)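 Weeds sown in puddled paddy soil under 4 cm water, with two-leaf Koshihikari rice transplanted at 3 cm depth. On day 10 after transplanting, wettable powder applied to the water surface at 1 kg active ingredient per hectare. Herbicidal effect and crop safety scored on an index 21 days later.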

Ammannia multiflora = assay: Paddy field treatment (Test Example 3); type: in vivo; settings: paddy pot, submerged 4 cm, dropped on water surface 10th day after transplantation, 1 kg active ingredient per hectare, evaluated 21st day
In short: as §3

Monochoria vaginalis = assay: Paddy field treatment (Test Example 3); type: in vivo; settings: paddy pot, submerged 4 cm, dropped on water surface 10th day after transplantation, 1 kg active ingredient per hectare, evaluated 21st day
In short: as §3

Scirpus juncoides = assay: Paddy field treatment (Test Example 3); type: in vivo; settings: paddy pot, submerged 4 cm, dropped on water surface 10th day after transplantation, 1 kg active ingredient per hectare, evaluated 21st day
In short: as §3

[13] = system: rice (Oryza sative, variety: Koshihikari); assay: Paddy field treatment (Test Example 3), crop; type: in vivo, Oryza sativa; settings: transplanted rice two-leaf period, water surface treatment 10th day after transplantation, 1 kg active ingredient per hectare, evaluated 21st day, lower index = higher safety
In short: as §3

## COC=C(Cn1nc(-c2cc(Cl)cc(Cl)c2)c(Br)c1C)C(=O)OC [Compound 32]
Chenopodium album [1]
  Herbicidal activity Chenopodium album: 4 (herbicidal effect of not less than 70% by weight and less than 90% by weight)
Digitaria adscendens [2]
  Herbicidal activity Digitaria adscendens: 4 (herbicidal effect of not less than 70% by weight and less than 90% by weight)
Setaria viridis [3]
  Herbicidal activity Setaria viridis: 4 (herbicidal effect of not less than 70% by weight and less than 90% by weight)
Stellaria media [4]
  Herbicidal activity Stellaria media: 4 (herbicidal effect of not less than 70% by weight and less than 90% by weight)
Soybean (Glycine max) [5]
  Herbicidal activity Glycine max: 0 (herbicidal effect of not less than 0% by weight and less than 10% by weight)
[6]
  Herbicidal activity Triticum aestivum: 0 (herbicidal effect of not less than 0% by weight and less than 10% by weight)
Chenopodium album [7]
  Herbicidal activity Chenopodium album: 4 (herbicidal effect of not less than 70% by weight and less than 90% by weight)
Digitaria adscendens [8]
  Herbicidal activity Digitaria adscendens: 4 (herbicidal effect of not less than 70% by weight and less than 90% by weight)
Setaria viridis [9]
  Herbicidal activity Setaria viridis: 4 (herbicidal effect of not less than 70% by weight and less than 90% by weight)
Stellaria media [10]
  Herbicidal activity Stellaria media: 4 (herbicidal effect of not less than 70% by weight and less than 90% by weight)
Soybean (Glycine max) [11]
  Herbicidal activity Glycine max: 0 (herbicidal effect of not less than 0% by weight and less than 10% by weight)
[12]
  Herbicidal activity Triticum aestivum: 0 (herbicidal effect of not less than 0% by weight and less than 10% by weight)
Echinochloa spp.
  Herbicidal activity Echinochloa spp.: 3 (herbicidal effect of not less than 50% by weight and less than 70% by weight)
Ammannia multiflora
  Herbicidal activity Ammannia multiflora: 3 (herbicidal effect of not less than 50% by weight and less than 70% by weight)
Monochoria vaginalis
  Herbicidal activity Monochoria vaginalis: 3 (herbicidal effect of not less than 50% by weight and less than 70% by weight)
Scirpus juncoides
  Herbicidal activity Scirpus juncoides: 3 (herbicidal effect of not less than 50% by weight and less than 70% by weight)
[13]
  Herbicidal activity Oryza sativa: 0 (herbicidal effect of not less than 0% by weight and less than 10% by weight)

## COC=C(Cn1nc(-c2ccccc2)c(C)c1C)C(=O)OC [Compound 33]
Chenopodium album [1]
  Herbicidal activity Chenopodium album: 5 (herbicidal effect of not less than 90% by weight)
Digitaria adscendens [2]
  Herbicidal activity Digitaria adscendens: 5 (herbicidal effect of not less than 90% by weight)
Setaria viridis [3]
  Herbicidal activity Setaria viridis: 4 (herbicidal effect of not less than 70% by weight and less than 90% by weight)
Stellaria media [4]
  Herbicidal activity Stellaria media: 5 (herbicidal effect of not less than 90% by weight)
Soybean (Glycine max) [5]
  Herbicidal activity Glycine max: 0 (herbicidal effect of not less than 0% by weight and less than 10% by weight)
[6]
  Herbicidal activity Triticum aestivum: 0 (herbicidal effect of not less than 0% by weight and less than 10% by weight)
Chenopodium album [7]
  Herbicidal activity Chenopodium album: 4 (herbicidal effect of not less than 70% by weight and less than 90% by weight)
Digitaria adscendens [8]
  Herbicidal activity Digitaria adscendens: 4 (herbicidal effect of not less than 70% by weight and less than 90% by weight)
Setaria viridis [9]
  Herbicidal activity Setaria viridis: 4 (herbicidal effect of not less than 70% by weight and less than 90% by weight)
Stellaria media [10]
  Herbicidal activity Stellaria media: 4 (herbicidal effect of not less than 70% by weight and less than 90% by weight)
Soybean (Glycine max) [11]
  Herbicidal activity Glycine max: 0 (herbicidal effect of not less than 0% by weight and less than 10% by weight)
[12]
  Herbicidal activity Triticum aestivum: 0 (herbicidal effect of not less than 0% by weight and less than 10% by weight)
Echinochloa spp.
  Herbicidal activity Echinochloa spp.: 5 (herbicidal effect of not less than 90% by weight)
Ammannia multiflora
  Herbicidal activity Ammannia multiflora: 5 (herbicidal effect of not less than 90% by weight)
Monochoria vaginalis
  Herbicidal activity Monochoria vaginalis: 5 (herbicidal effect of not less than 90% by weight)
Scirpus juncoides
  Herbicidal activity Scirpus juncoides: 5 (herbicidal effect of not less than 90% by weight)
[13]
  Herbicidal activity Oryza sativa: 1 (herbicidal effect of not less than 10% by weight and less than 30% by weight)

## COC=C(Cn1nc(-c2cccc(Cl)c2)c(C)c1C)C(=O)OC [Compound 34]
Chenopodium album [1]
  Herbicidal activity Chenopodium album: 5 (herbicidal effect of not less than 90% by weight)
Digitaria adscendens [2]
  Herbicidal activity Digitaria adscendens: 5 (herbicidal effect of not less than 90% by weight)
Setaria viridis [3]
  Herbicidal activity Setaria viridis: 4 (herbicidal effect of not less than 70% by weight and less than 90% by weight)
Stellaria media [4]
  Herbicidal activity Stellaria media: 4 (herbicidal effect of not less than 70% by weight and less than 90% by weight)
Soybean (Glycine max) [5]
  Herbicidal activity Glycine max: 1 (herbicidal effect of not less than 10% by weight and less than 30% by weight)
[6]
  Herbicidal activity Triticum aestivum: 1 (herbicidal effect of not less than 10% by weight and less than 30% by weight)
Chenopodium album [7]
  Herbicidal activity Chenopodium album: 4 (herbicidal effect of not less than 70% by weight and less than 90% by weight)
Digitaria adscendens [8]
  Herbicidal activity Digitaria adscendens: 4 (herbicidal effect of not less than 70% by weight and less than 90% by weight)
Setaria viridis [9]
  Herbicidal activity Setaria viridis: 4 (herbicidal effect of not less than 70% by weight and less than 90% by weight)
Stellaria media [10]
  Herbicidal activity Stellaria media: 4 (herbicidal effect of not less than 70% by weight and less than 90% by weight)
Soybean (Glycine max) [11]
  Herbicidal activity Glycine max: 0 (herbicidal effect of not less than 0% by weight and less than 10% by weight)
[12]
  Herbicidal activity Triticum aestivum: 0 (herbicidal effect of not less than 0% by weight and less than 10% by weight)
Echinochloa spp.
  Herbicidal activity Echinochloa spp.: 3 (herbicidal effect of not less than 50% by weight and less than 70% by weight)
Ammannia multiflora
  Herbicidal activity Ammannia multiflora: 3 (herbicidal effect of not less than 50% by weight and less than 70% by weight)
Monochoria vaginalis
  Herbicidal activity Monochoria vaginalis: 5 (herbicidal effect of not less than 90% by weight)
Scirpus juncoides
  Herbicidal activity Scirpus juncoides: 3 (herbicidal effect of not less than 50% by weight and less than 70% by weight)
[13]
  Herbicidal activity Oryza sativa: 0 (herbicidal effect of not less than 0% by weight and less than 10% by weight)

## COC=C(Cn1nc(-c2ccc(Cl)cc2)c(C)c1C)C(=O)OC [Compound 35]
Chenopodium album [1]
  Herbicidal activity Chenopodium album: 4 (herbicidal effect of not less than 70% by weight and less than 90% by weight)
Digitaria adscendens [2]
  Herbicidal activity Digitaria adscendens: 4 (herbicidal effect of not less than 70% by weight and less than 90% by weight)
Setaria viridis [3]
  Herbicidal activity Setaria viridis: 4 (herbicidal effect of not less than 70% by weight and less than 90% by weight)
Stellaria media [4]
  Herbicidal activity Stellaria media: 4 (herbicidal effect of not less than 70% by weight and less than 90% by weight)
Soybean (Glycine max) [5]
  Herbicidal activity Glycine max: 0 (herbicidal effect of not less than 0% by weight and less than 10% by weight)
[6]
  Herbicidal activity Triticum aestivum: 0 (herbicidal effect of not less than 0% by weight and less than 10% by weight)
Chenopodium album [7]
  Herbicidal activity Chenopodium album: 4 (herbicidal effect of not less than 70% by weight and less than 90% by weight)
Digitaria adscendens [8]
  Herbicidal activity Digitaria adscendens: 4 (herbicidal effect of not less than 70% by weight and less than 90% by weight)
Setaria viridis [9]
  Herbicidal activity Setaria viridis: 4 (herbicidal effect of not less than 70% by weight and less than 90% by weight)
Stellaria media [10]
  Herbicidal activity Stellaria media: 4 (herbicidal effect of not less than 70% by weight and less than 90% by weight)
Soybean (Glycine max) [11]
  Herbicidal activity Glycine max: 0 (herbicidal effect of not less than 0% by weight and less than 10% by weight)
[12]
  Herbicidal activity Triticum aestivum: 0 (herbicidal effect of not less than 0% by weight and less than 10% by weight)
Echinochloa spp.
  Herbicidal activity Echinochloa spp.: 3 (herbicidal effect of not less than 50% by weight and less than 70% by weight)
Ammannia multiflora
  Herbicidal activity Ammannia multiflora: 4 (herbicidal effect of not less than 70% by weight and less than 90% by weight)
Monochoria vaginalis
  Herbicidal activity Monochoria vaginalis: 4 (herbicidal effect of not less than 70% by weight and less than 90% by weight)
Scirpus juncoides
  Herbicidal activity Scirpus juncoides: 3 (herbicidal effect of not less than 50% by weight and less than 70% by weight)
[13]
  Herbicidal activity Oryza sativa: 0 (herbicidal effect of not less than 0% by weight and less than 10% by weight)
